# According to patent US5858684A, “Method of screening calcium receptor-active molecules” (priority 1995, dated 1999):
# “Also recorded” adds a separate entry of the source.
# How the values were obtained:
# [1] = cited from earlier work
# [2] = tested on: inositol phosphate formation in bovine parathyroid cells; experiment: inositol phosphate formation in bovine parathyroid cells; type: cell-based
# Experimental: After 30 seconds, the reaction was terminated by the addition of CHCl3 :MeOH:HCl and IP1 (circles) and IP3 (triangles) separated by anion exchange chromatography. Each point is the mean of 2 experiments, each performed in triplicate.
# This section describes procedures measuring inositol phosphate formation. Membrane phospholipids were labeled by incubating parathyroid cells with 4 μCi/ml ^3 H-myo-inositol for 20-24 hours. Cells were then washed and resuspended in PCB containing 0.5 mM CaCl2 and 0.1% BSA. Incubations were performed in microfuge tubes in the absence or presence of various concentrations of organic polycation for different times. Reactions were terminated by the addition of 1 ml chloroform-methanol-12N HCl (200:100:1; v/v/v). Aqueous phytic acid hydrolysate (200 μl; 25 μg phosphate/tube). The tubes were centrifuged and 600 μl of the aqueous phase was diluted into 10 ml water.
# Inositol phosphates were separated by ion-exchange chromatography using AG1-X8 in either the chloride- or formate-form. When only IP3 levels were to be determined, the chloride-form was used, whereas the formate form was used to resolve the major inositol phosphates (IP3, IP2, and IP1). For determination of just IP3, the diluted sample was applied to the chloride-form column and the column was washed with 10 ml 30 mM HCl followed by 6 ml 90 mM HCl and the IP3 was eluted with 3 ml 500 mM HCl. The last eluate was diluted and counted. For determination of all major inositol phosphates, the diluted sample was applied to the formate-form column and IP1, IP2, and IP3 eluted sequentially by increasing concentrations of formate buffer. The eluted samples from the formate columns were rotary evaporated, the residues brought up in cocktail, and counted.
# [3] = tested on: parathyroid cell calcium receptor; type: cell-based
# net positive charge = type: physicochemical
# [4] = tested on: PTH secretion from bovine parathyroid cells; experiment: PTH secretion from bovine parathyroid cells; type: cell-based
# Experimental: PTH secretion was measured by first suspending cells in PCB containing 0.5 mM CaCl2 and 0.1% BSA.
# [5] = tested on: cyclic AMP formation in bovine parathyroid cells; type: cell-based
# Experimental: Cells were incubated as above for PTH secretion studies and at the end of the incubation, a 0.15-ml sample was taken and transferred to 0.85 ml of hot (70° C.) water and heated at this temperature for 5-10 minutes. The tubes were subsequently frozen and thawed several times and the cellular debris sedimented by centrifugation. Portions of the supernatant were acetylated and cyclic AMP concentrations determined by radioimmunoassay.
# Each value is the mean±SEM of three experiments.
# [6] = biological target: T1, bovine parathyroid cell calcium receptor (BoPCaR 1) (Bos taurus, UniProt P35384); experiment: inositol 1,4,5-triphosphate in Xenopus oocytes expressing BoPCaR 1; type: cell-based; conditions: 10 μg/ml, 48 hours
# T1 construct: Xenopus oocytes were injected with BoPCaR 1, the 5.3 Kb cDNA encoding a bovine parathyroid cell calcium receptor; expressed in transfected cells; host or cells: Xenopus laevis oocytes injected with cRNA/cDNA of BoPCaR 1
# T1 sequence (P35384 20-1085): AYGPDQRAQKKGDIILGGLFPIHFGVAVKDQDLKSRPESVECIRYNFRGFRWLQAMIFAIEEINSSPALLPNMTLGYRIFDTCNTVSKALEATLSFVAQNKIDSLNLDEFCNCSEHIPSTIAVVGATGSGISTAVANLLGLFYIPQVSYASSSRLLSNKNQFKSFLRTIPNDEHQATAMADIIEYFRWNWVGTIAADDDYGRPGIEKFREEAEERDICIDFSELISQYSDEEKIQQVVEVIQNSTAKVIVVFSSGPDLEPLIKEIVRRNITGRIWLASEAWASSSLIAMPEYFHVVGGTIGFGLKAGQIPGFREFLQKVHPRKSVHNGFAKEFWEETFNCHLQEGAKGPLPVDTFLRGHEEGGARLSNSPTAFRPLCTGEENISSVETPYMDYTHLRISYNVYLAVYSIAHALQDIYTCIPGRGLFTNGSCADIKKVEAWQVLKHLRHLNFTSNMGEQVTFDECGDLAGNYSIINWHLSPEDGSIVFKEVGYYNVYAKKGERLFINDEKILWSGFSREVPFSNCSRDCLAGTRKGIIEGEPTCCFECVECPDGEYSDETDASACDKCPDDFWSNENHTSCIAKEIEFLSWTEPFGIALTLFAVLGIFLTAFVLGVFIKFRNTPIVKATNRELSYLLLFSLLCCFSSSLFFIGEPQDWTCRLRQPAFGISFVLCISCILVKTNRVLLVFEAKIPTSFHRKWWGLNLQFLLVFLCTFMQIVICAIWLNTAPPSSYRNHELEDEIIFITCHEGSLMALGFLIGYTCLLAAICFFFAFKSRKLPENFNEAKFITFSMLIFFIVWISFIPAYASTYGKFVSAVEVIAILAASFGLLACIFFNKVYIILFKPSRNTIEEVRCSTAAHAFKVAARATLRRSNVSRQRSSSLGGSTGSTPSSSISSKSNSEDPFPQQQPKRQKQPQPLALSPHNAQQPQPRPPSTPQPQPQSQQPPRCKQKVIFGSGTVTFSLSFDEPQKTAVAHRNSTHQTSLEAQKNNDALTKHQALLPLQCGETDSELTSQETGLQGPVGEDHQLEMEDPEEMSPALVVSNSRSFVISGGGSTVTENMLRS
# Description: These responses are mediated by the following series of biochemical events:
# (1) Activation of phospholipase C by a pertussis toxin-sensitive guanine nucleotide regulatory (G) protein resulting in 4-7 fold increases in the levels of inositol 1,4,5-triphosphate (IP3).
# [7] = serum/blood ionized Ca2+ in rats; type: in vivo, rat; conditions: i.p.
# Experimental: (§1) Compounds shown to activate the bovine parathyroid cell calcium receptor in vitro were tested for hypocalcemic activity in vivo. Male Sprague-Dawley rats (200 g) were maintained on a low calcium diet for one week prior to receiving test substance or vehicle as control. Blood was collected from the tail vein three hours after the intraperitoneal administration of NPS 467. […] Serum total calcium, albumin and phosphate were measured by techniques well known in the art.
# Rats (male, Sprague-Dawley, 250-300 g) were fed standard rat chow and fasted overnight prior to the experiment. NPS R-467 was suspended in corn oil and administered as a single oral dose through a gavage needle. Three hours later a sample of blood was taken from the tail vein and assessed for ionized Ca^2+ levels.
# circulating PTH in rats = type: in vivo, rat
# [8] = serum albumin and phosphate in rats; type: in vivo, rat; conditions: any dose examined
# Experimental: as §1
compound,measurement,setting,value
NCCCC[C@H](N)C(=O)O [lysine],interaction with phospholipid vesicles,[1],not interacting to a significant extent
protamine,formation of inositol phosphates,[2],increases the formation of inositol phosphates
same,onset of increase in IP3 formation,[2],≤ 30 s
same,increase in [Ca2+]i / mobilization of intracellular Ca2+,[3],evoked rapid and transient increases
same,net positive charge,net positive charge,+21
same,inhibition of PTH secretion,[4]; bovine parathyroid cells,inhibit PTH secretion; also recorded: inhibited PTH secretion to the same extent
same,isoproterenol-induced cyclic AMP,[5],depressed isoproterenol-induced increases
pertussis toxin,inhibition of the increase in IP3 by pertussis toxin,[6],75%
"CCCCCCCCCCCCCC(=O)O[C@@H]1[C@@H](C)[C@@]2(O)[C@@H](C=C(CO)C[C@]3(O)C(=O)C(C)=C[C@@H]23)[C@@H]2C(C)(C)[C@]12OC(C)=O [PMA, phorbol myristate acetate]",IP1 formation evoked by extracellular Ca2+ or spermine,"[2]; 100 nM PMA, 5 minutes",depresses the formation of IP1
same,shift of concentration-response curve for [Ca2+]i,[3]; 100 nM PMA,shifts to the right
same,shift of concentration-response curve for PTH secretion,[4]; 100 nM PMA,shifts to the right
COc1cccc(C(C)NCCCc2ccccc2)c1 (racemic) [NPS 467],serum or blood Ca2+,"[7]; low calcium diet, 3 hours after dosing, rats",dose-dependent reduction in serum or whole blood
same,time of maximal hypocalcemic effect,[7]; returned toward control levels after 24 hours,maximal within three hours
same,circulating levels of PTH,circulating PTH in rats,dose-dependent reduction in circulating levels of PTH
same,serum albumin or phosphate levels,[8],no change in serum albumin or phosphate levels
